Test results taken from patent US20210308077A1, “COMBINATIONS INCLUDING BETA-ADRENORECEPTOR AGONISTS FOR TREATMENT OF PARKINSON`S DISEASE AND MOVEMENT DISORDERS” (The Brigham and Women`s Hospital, Inc., priority 2017, published 2021).

Experiments:
SNCA mRNA = test: endogenous SNCA mRNA expression in SK-N-MC neuroblastoma cells (screening, replication, confirmation; qPCR); type: cell-based, human
Procedure: Human neuroblastoma SK-N-MC cells were acquired from American Type Culture Collection (ATCC). Cells were cultured at 37° C. in 5% CO2 in DMEM/F12 supplemented with 10% fetal bovine serum (FBS) and 100 units per ml penicillin and streptomycin. The drug library was obtained from the Laboratory for Drug Discovery in Neurodegeneration (LDDN), Harvard NeuroDiscovery Center, Boston, Mass. The drug library consisted of approximately 1,126 small molecules. About 586 of the compounds were from Prestwick Chemical's (Illkirch, France) library, a unique collection of mostly off-patent small organic molecules, 90% being marketed drugs and 10% bioactive alkaloids or related substances. About 400 compounds were from the SPECS collection (available on the world wide web at.specs.net). 140 compounds generated in house by the LDDN were also included in the library. Compounds for the screening were stored as DMSO stocks. All drugs used for Confirmation Assay were purchased from Sigma (St. Louis, Mo.).
Approximately 2×10^4low passage SK-N-MC cells were seeded per well in 384-well cell culture plates for 24 hours. Compounds were then transferred into each well (final concentration 1 μM) by using a BioMekFX (Beckman Coulter) equipped with a 384-channel pipetting head. After 48 hours in cell culture incubator, cells were washed once in cold phosphate-buffered saline (PBS) by using BioTek ELx405 select CW plate washer and then lysed at room temperature (22-24° C.) with lysis buffer (Applied Biosystems) using the Cell-to-CT procedures according to the manufacturer's instructions (Applied Biosystems). After 5 min, lysis was terminated by incubation with stop solution (Applied Biosystems). 11 μL of each lysate were transferred to 384-well plates for RT in a total volume of 25 μl. 4 μL of RT reaction were then transferred to new 384-well plates for qPCR.
Using the Cell-to-CT kit (Applied Biosystems) we performed expression analysis directly from SK-N-MC neuroblastoma cells cultured in 384-well plates through in situ cDNA synthesis. In this miniaturized assay, high copy numbers of SNCA and of endogenous controls were detected as indicated by raw cycle threshold values of 25.11±0.02 (mean CT value±SEM) and 20.2±0.02 for SNCA and Ubiquitin C (UBC), respectively. Technical variation (using identical cDNA loaded in multiple wells) and biological variation (cDNA synthesized in situ in each of 384 wells of cultured SK-N-MC cells treated with DMSO) were low, with coefficients of variation of 1% and 5.2% respectively. At least ten DMSO-treated controls were included on each 384-well plate as negative external control and calibrator. An equal amount of cDNA derived from Universal Reference RNA was spotted on all plates as plate-to-plate control. Control reactions lacking template or reverse transcription were assayed for contamination with genomic DNA.
41 compounds were forwarded into the Replication Assay. For each compound eight wells were treated with drug and compared to eight wells treated with DMSO alone. The Cell-to-CT procedure was employed using two new reference genes, ribosomal protein L13 (RPL13) and glucuronidase beta (GUSB) (instead of UBC) to control for input RNA. […] 10 compounds met these criteria and were forwarded from the Replication into the Confirmation Assay.
The ten forwarded compounds were used in the Confirmation Assay. For each compound ten wells were treated with drug and compared to ten wells treated with DMSO alone. RNA was extracted using TRIzol® following the manufacturers protocol (Life Technologies). Freshly ordered compounds were used. […] Six compounds met these criteria and were forwarded from the Confirmation Assay to the ELISA Assay stage (see below).
Total RNA from flash-frozen mice brain tissue, rodent primary cells, human neuroblastoma cells and iPSC-derived neuronal cells was isolated using TRIzol® (Life Technologies) following the manufacturer's protocol. […]

α-synuclein protein [1] = test: α-synuclein-specific ELISA in SK-N-MC cells; type: cell-based, human
Procedure: Protein lysis buffer containing 320 mM sucrose, 5 mM NaF, 1 mM Na3VO4, 10 mM Tris (pH 7.4), 1 mM EGTA, and 1 mM EDTA was used for mice brain tissue lysis. 100 μL of cold extraction buffer was added to each sample and homogenized in a dounce homogenizer. After incubating on ice for 10 minutes post-homogenization, samples were centrifuged at 10,000 rpm at 4° C. for 10 minutes. Supernatant was transferred to new tubes and centrifuged again at 10,000 rpm at 4° C. for additional 10 minutes. The final supernatant was transferred to new tubes and protein estimation was performed by ELISA. Total protein from rodent primary cells, human neuroblastoma cells and iPSC-derived neuronal cells was extracted using lysis buffer containing 1×PBS and 0.5% NP-40. Cells were washed once with cold PBS and lysed by adding cold lysis buffer. The cells were collected by scraping, then incubated for 30 minutes by rotating at 4° C. The samples were centrifuged at 14,000 rpm at 4° C. for 10 minutes and supernatant was transferred to new tubes. Total protein concentrations were determined by BCA assay (Thermo Scientific) according to the manufacturer's instructions. Total α-synuclein was quantified using an α-synuclein-specific sandwich ELISA.
(§1) An α-synuclein-specific Meso Scale Discovery (MSD) ELISA assay (described in Ref. (11)) was utilized for endogenous α-synuclein protein measurement. […] After samples were emptied and plate washed 3 times with TBS-T, sulfo-tagged SOY1 mAb (detection Ab) (generated using Sulfo-Tag-NHS-Ester (MSD) diluted in blocking buffer (6.7 ng/μl), was added to the plate (30 μl volumes/well) and shaken for 1 hour at room temperature. Following 3 washes, MSD Read (2×, diluted in ultrapure water) buffer was added and the plates were immediately measured using a MSD Sector 2400 imager. For confirmatory studies, an second α-synuclein-specific ELISA implementation was used employing a different, extensively published anti-α-synuclein detection antibody (Syn-1 mAb) and a different anti-α-synuclein capture antibody (1H9, courtesy Dr. Selkoe).

α-synuclein protein [2] = test: α-synuclein protein in rat primary cortical neurons (ELISA); type: cell-based; settings: metaproterenol 5 μM, clenbuterol 20 μM, salbutamol 10 μM, 72 hours
Procedure: Primary cortical cultures were generated from E18 Sprague-Dawley rat embryos. The cortical region was dissected out in Hank's Balanced Salt Solution buffered with Hepes and dissociated with 0.125% trypsin (Invitrogen) for 17 min at 37 ° C., followed by trituration. Dissociated cells were plated at a density of 5×10^5 cells/well or 2.5×10^5 cells/well in 12-well or 24-well plates, respectively precoated with poly-D lysine (100 μg/mL). The cells were cultured in Neurobasal medium with B-27 supplement (Invitrogen) and glutamax and gentamycin. Half of the medium was changed every 4 days. Cortical neurons were treated with β2AR agonists 10 days post plating. They were then harvested 48 hours post-treatment for mRNA extraction and 72 hours post-treatment for protein extraction.
Protein lysis buffer containing 320 mM sucrose, 5 mM NaF, 1 mM Na3VO4, 10 mM Tris (pH 7.4), 1 mM EGTA, and 1 mM EDTA was used for mice brain tissue lysis. 100 μL of cold extraction buffer was added to each sample and homogenized in a dounce homogenizer. […] Total protein concentrations were determined by BCA assay (Thermo Scientific) according to the manufacturer's instructions. Total α-synuclein was quantified using an α-synuclein-specific sandwich ELISA.
as §1

[3] = SK-N-MC cells, 5, 10, 20 μM, four days

Structure (SMILES) | endogenous SNCA mRNA under β2AR antagonism (SNCA mRNA; SK-N-MC cells) | effect of co-treatment on clenbuterol's SNCA expression-lowering effects (SNCA mRNA; SK-N-MC cells, co-treatment with clenbuterol) | endogenous α-synuclein protein under β2AR antagonism (α-synuclein protein [1]; SK-N-MC cells) | SNCA mRNA levels after 14 days (SNCA mRNA; SK-N-MC cells, 10 μM, 14 days) | α-synuclein mRNA levels with increasing concentrations (SNCA mRNA; [3]) | relative SNCA mRNA abundance (with H3K27Ac blot) (SNCA mRNA; SK-N-MC cells, vs vehicle-treated cells) | α-synuclein protein after 14 days (α-synuclein protein [1]; SK-N-MC cells, 10 μM, 14 days) | α-synuclein protein levels with increasing concentrations (α-synuclein protein [1]; [3]) | α-synuclein protein levels (α-synuclein protein [2]) | SNCA mRNA expression, dose dependence (SNCA mRNA; SK-N-MC cells, indicated doses, 48 hours)
CC(C)NCC(O)COc1cccc2ccccc12 (centres unmarked) [Propranolol, propranolol] | increased | blocked clenbuterol's SNCA expression-lowering effects | increased | – | – | – | – | – | – | –
CC(C)(C)NCC(O)c1cc(Cl)c(N)c(Cl)c1 (centres unmarked) [clenbuterol] | – | – | – | lowered | decrease in α-synuclein mRNA | decreased | lowered | decrease | significantly, but modestly, reduced | –
CC(C)(C)NCC(O)c1ccc(O)c(CO)c1 (centres unmarked) [Salbutamol, salbutamol] | – | – | – | – | – | – | – | – | significantly, but modestly, reduced | lowered SNCA mRNA expression in a dose-dependent manner
